Reference: patent US10040790B2, “Bicyclic heterocycles as FGFR inhibitors” (Incyte Corporation, priority 2013, dated 2018)

Columns and labels:
Assay type in all cases: biochemical
[1] = molecular target: FGFR3 (Homo sapiens (Human), UniProt P22607); assay: FGFR Enzymatic Assay (FRET peptide phosphorylation), FGFR3; settings: ATP 140 μM
Procedure: (§1) The inhibitor potency of the exemplified compounds was measured in an enzyme assay that measures peptide phosphorylation using FRET measurements to detect product formation. Inhibitors were serially diluted in DMSO and a volume of 0.5 μL was transferred to the wells of a 384-well plate. For FGFR3, a 10 μL volume of FGFR3 enzyme (Millipore) diluted in assay buffer (50 mM HEPES, 10 mM MgCl2, 1 mM EGTA, 0.01% Tween-20, 5 mM DTT, pH 7.5) was added to the plate and pre-incubated for 5-10 minutes. Appropriate controls (enzyme blank and enzyme with no inhibitor) were included on the plate. The assay was initiated by the addition of a 10 μL solution containing biotinylated EQEDEPEGDYFEWLE peptide substrate (SEQ ID NO: 1) and ATP (final concentrations of 500 nM and 140 μM respectively) in assay buffer to the wells. The plate was incubated at 25° C. for 1 hr. The reactions were ended with the addition of 10 μL/well of quench solution (50 mM Tris, 150 mM NaCl, 0.5 mg/mL BSA, pH 7.8; 30 mM EDTA with Perkin Elmer Lance Reagents at 3.75 nM Eu-antibody PY20 and 180 nM APC-Streptavidin). The plate was allowed to equilibrate for ˜1 hr before scanning the wells on a PheraStar plate reader (BMG Labtech).
(§2) GraphPad prism3 was used to analyze the data. The IC50 values were derived by fitting the data to the equation for a sigmoidal dose-response with a variable slope. Y=Bottom+(Top−Bottom)/(1+10^((Log IC50−X)*HillSlope)) where X is the logarithm of concentration and Y is the response.

[2] = molecular target: FGFR1 (Homo sapiens (Human), UniProt P11362); assay: FGFR Enzymatic Assay (FRET peptide phosphorylation), FGFR1; settings: ATP 210 μM, enzyme 0.02 nM
FGFR1, sequence (P11362 22-822): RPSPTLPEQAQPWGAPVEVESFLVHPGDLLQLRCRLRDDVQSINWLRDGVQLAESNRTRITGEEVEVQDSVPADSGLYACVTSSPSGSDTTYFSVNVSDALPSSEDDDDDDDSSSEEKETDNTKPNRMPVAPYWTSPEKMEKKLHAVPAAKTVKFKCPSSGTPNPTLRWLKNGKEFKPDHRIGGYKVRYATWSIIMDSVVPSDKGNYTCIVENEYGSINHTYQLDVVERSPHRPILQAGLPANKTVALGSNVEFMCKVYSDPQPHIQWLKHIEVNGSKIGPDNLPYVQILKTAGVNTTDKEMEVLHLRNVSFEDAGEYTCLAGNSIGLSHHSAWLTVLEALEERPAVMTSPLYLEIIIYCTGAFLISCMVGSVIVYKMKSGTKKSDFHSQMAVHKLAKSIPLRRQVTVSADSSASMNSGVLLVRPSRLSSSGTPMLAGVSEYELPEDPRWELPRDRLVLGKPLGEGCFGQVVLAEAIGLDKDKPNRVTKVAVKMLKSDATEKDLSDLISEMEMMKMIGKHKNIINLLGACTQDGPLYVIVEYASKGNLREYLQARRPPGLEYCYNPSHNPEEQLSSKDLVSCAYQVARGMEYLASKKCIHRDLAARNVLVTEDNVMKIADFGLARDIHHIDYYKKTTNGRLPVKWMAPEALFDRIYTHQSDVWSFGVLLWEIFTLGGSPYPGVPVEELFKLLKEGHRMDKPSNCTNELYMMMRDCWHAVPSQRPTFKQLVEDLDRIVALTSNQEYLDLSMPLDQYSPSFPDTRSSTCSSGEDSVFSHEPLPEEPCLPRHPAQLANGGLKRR
Procedure: as §1
(§3) FGFR1 and FGFR2 were measured under equivalent conditions with the following changes in enzyme and ATP concentrations: FGFR1, 0.02 nM and 210 μM, respectively and FGFR2, 0.01 nM and 100 μM, respectively. The enzymes were purchased from Millipore or Invitrogen.
as §2

[3] = molecular target: FGFR2 (Homo sapiens (Human), UniProt P21802); assay: FGFR Enzymatic Assay (FRET peptide phosphorylation), FGFR2; settings: ATP 100 μM, enzyme 0.01 nM
FGFR2, sequence (P21802 22-821): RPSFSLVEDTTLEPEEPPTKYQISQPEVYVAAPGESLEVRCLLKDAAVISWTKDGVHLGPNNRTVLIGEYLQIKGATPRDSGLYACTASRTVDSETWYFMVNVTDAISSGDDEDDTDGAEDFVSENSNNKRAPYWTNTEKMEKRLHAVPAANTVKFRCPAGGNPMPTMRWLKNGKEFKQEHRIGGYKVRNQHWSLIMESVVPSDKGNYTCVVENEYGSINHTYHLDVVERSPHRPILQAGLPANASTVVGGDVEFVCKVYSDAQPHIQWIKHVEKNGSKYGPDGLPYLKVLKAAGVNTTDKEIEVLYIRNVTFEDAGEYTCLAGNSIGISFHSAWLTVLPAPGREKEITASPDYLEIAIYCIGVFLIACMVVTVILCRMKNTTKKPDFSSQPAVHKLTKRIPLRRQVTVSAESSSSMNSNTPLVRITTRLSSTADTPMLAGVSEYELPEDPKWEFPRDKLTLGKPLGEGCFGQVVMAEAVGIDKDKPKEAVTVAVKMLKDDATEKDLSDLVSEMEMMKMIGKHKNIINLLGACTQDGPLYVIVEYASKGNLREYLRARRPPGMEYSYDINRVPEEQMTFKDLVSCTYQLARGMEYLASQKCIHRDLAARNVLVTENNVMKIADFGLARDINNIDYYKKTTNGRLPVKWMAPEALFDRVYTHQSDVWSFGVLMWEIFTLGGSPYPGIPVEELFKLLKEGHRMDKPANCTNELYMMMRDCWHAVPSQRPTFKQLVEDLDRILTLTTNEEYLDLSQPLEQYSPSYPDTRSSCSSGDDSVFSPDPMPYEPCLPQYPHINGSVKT
Procedure: as §1, §3, §2

FGFR3, sequence (P22607 23-806): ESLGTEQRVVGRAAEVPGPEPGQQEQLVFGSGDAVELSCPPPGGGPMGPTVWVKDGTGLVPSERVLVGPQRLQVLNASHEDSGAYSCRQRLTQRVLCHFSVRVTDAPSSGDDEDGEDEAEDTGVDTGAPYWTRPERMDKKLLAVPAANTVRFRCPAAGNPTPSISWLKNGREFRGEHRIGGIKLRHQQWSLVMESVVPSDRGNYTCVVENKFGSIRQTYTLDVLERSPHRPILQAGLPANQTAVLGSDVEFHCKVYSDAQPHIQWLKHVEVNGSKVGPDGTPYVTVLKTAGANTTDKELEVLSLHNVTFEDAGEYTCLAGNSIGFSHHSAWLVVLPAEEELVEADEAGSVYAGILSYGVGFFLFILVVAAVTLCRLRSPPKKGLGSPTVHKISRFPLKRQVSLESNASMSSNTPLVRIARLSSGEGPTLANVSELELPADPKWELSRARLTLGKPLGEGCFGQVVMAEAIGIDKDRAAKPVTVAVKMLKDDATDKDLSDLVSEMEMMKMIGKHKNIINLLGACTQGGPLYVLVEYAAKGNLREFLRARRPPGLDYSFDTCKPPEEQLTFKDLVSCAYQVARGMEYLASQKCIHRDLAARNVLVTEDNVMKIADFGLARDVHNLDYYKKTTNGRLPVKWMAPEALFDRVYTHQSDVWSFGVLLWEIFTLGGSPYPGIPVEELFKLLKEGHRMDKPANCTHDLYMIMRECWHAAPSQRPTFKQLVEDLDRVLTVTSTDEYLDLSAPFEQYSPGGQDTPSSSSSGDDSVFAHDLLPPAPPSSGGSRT

IC50 [1] | IC50 [2] | IC50 [3] | Compound
< 0.1 µM | < 0.1 µM | < 0.1 µM | COC(=O)Nc1cc2c(cn1)CN(c1c(F)c(OC)cc(OC)c1F)C(=O)C21CC1 [Example 31, methyl 2′-(2,6-difluoro-3,5-dimethoxyphenyl)-3′-oxo-2′,3′-dihydro-1′H-spiro[cyclopropane-1,4′-[2,7]naphthyridine]-6′-ylcarbamate]
< 0.1 µM | < 0.1 µM | < 0.1 µM | COc1cc(OC)c(F)c(N2Cc3cnc(NC4CCCC4)cc3C3(CC3)C2=O)c1F [Example 34, 6′-(cyclopentylamino)-2′-(2,6-difluoro-3,5-dimethoxyphenyl)-1′H-spiro[cyclopropane-1,4′-[2,7]naphthyridin]-3′(2′H)-one]
< 0.1 µM | < 0.1 µM | < 0.1 µM | COc1cc(OC)c(F)c(N2Cc3cnc(Nc4cnn(C)c4)cc3C3(CC3)C2=O)c1F [Example 36, 2′-(2,6-difluoro-3,5-dimethoxyphenyl)-6′-(1-methyl-1H-pyrazol-4-ylamino)-1′H-spiro[cyclopropane-1,4′-[2,7]naphthyridin]-3′(2′H)-one]
< 0.1 µM | < 0.1 µM | < 0.1 µM | COc1cc(OC)c(F)c(N2Cc3cnc(N[C@H](C)c4ccccc4)cc3C3(CC3)C2=O)c1F [Example 38, (R)-2′-(2,6-difluoro-3,5-dimethoxyphenyl)-6′-(1-phenylethylamino)-1′H-spiro[cyclopropane-1,4′-[2,7]naphthyridin]-3′(2′H)-one]
< 0.1 µM | < 0.1 µM | < 0.1 µM | COc1cc(OC)c(F)c(N2Cc3cnc(N)c(CCc4ccccc4)c3N(C)C2=O)c1F [Example 19, 7-amino-3-(2,6-difluoro-3,5-dimethoxyphenyl)-1-methyl-8-phenylethyl-3,4-dihydropyrido-[4,3-d]pyrimidin-2(1H)-one]
< 0.1 µM | < 0.1 µM | < 0.1 µM | COc1cc(OC)c(F)c(N2Cc3cnc(N)c(-c4cccnc4)c3N(C)C2=O)c1F [Example 16, 7-amino-3-(2,6-difluoro-3,5-dimethoxyphenyl)-1-methyl-8-pyridin-3-yl-3,4-dihydropyrido[4,3-d]pyrimidin-2(1H)-one]
< 0.1 µM | < 0.1 µM | < 0.1 µM | COc1cc(OC)c(F)c(N2Cc3cnc(N)c(C#N)c3N(C)C2=O)c1F [Example 3, 7-amino-3-(2,6-difluoro-3,5-dimethoxyphenyl)-1-methyl-2-oxo-1,2,3,4-tetrahydropyrido-[4,3-d]pyrimidine-8-carbonitrile]
< 0.1 µM | < 0.1 µM | < 0.1 µM | COc1cc(OC)c(F)c(N2Cc3cnc(N)c(-c4ccc(F)cc4)c3N(C)C2=O)c1F [Example 15, 7-amino-3-(2,6-difluoro-3,5-dimethoxyphenyl)-8-(4-fluorophenyl)-1-methyl-3,4-dihydro-pyrido[4,3-d]pyrimidin-2(1H)-one]
< 0.1 µM | < 0.1 µM | < 0.1 µM | COc1cc(OC)c(F)c(N2Cc3cnc(NC4CCC4)cc3C3(CC3)C2=O)c1F [Example 42, 6′-(cyclobutylamino)-2′-(2,6-difluoro-3,5-dimethoxyphenyl)-1′H-spiro[cyclopropane-1,4′-[2,7]naphthyridin]-3′(2′H)-one]
< 0.1 µM | < 0.1 µM | < 0.1 µM | COc1cc(OC)c(F)c(N2Cc3cnc(N)c(C4=CCOCC4)c3N(C)C2=O)c1F [Example 21, 7-amino-3-(2,6-difluoro-3,5-dimethoxyphenyl)-8-(3,6-dihydro-2H-pyran-4-yl)-1-methyl-3,4-dihydropyrido[4,3-d]pyrimidin-2(1H)-one]
< 0.1 µM | < 0.1 µM | < 0.1 µM | COc1cc(OC)c(F)c(N2Cc3cnc(NC[C@H](C)O)cc3C3(CC3)C2=O)c1F [Example 27, (S)-2′-(2,6-difluoro-3,5-dimethoxyphenyl)-6′-(2-hydroxypropylamino)-1′H-spiro[cyclopropane-1,4′-[2,7]naphthyridin]-3′(2′H)-one]
< 0.1 µM | < 0.1 µM | < 0.1 µM | COc1cc(OC)c(F)c(N2Cc3cnc(N)c(Cc4ccccc4)c3N(C)C2=O)c1F [Example 20, 7-amino-8-benzyl-3-(2,6-difluoro-3,5-dimethoxyphenyl)-1-methyl-3,4-dihydropyrido[4,3-d]pyrimidin-2(1H)-one]
< 0.1 µM | < 0.1 µM | < 0.1 µM | COc1cc(OC)c(F)c(N2Cc3cnc(N)c(C#N)c3N(Cc3cnn(C)c3)C2=O)c1F [Example 51, 7-amino-3-(2,6-difluoro-3,5-dimethoxyphenyl)-1-[(1-methyl-1H-pyrazol-4-yl)methyl]-2-oxo-1,2,3,4-tetrahydropyrido[4,3-d]pyrimidine-8-carbonitrile]
< 0.1 µM | < 0.1 µM | < 0.1 µM | COc1cc(OC)c(F)c(N2Cc3cnc(N)c(-c4cnn(CCO)c4)c3N(C)C2=O)c1F [Example 10, 7-amino-3-(2,6-difluoro-3,5-dimethoxyphenyl)-8-[1-(2-hydroxyethyl)-1H-pyrazol-4-yl]-1-methyl-3,4-dihydropyrido[4,3-d]pyrimidin-2(1H)-one]
< 0.1 µM | < 0.1 µM | < 0.1 µM | COc1cc(OC)c(F)c(N2Cc3cnc(N)c(OCCN4CCN(C)CC4)c3N(C)C2=O)c1F [Example 6, 7-amino-3-(2,6-difluoro-3,5-dimethoxyphenyl)-1-methyl-8-[2-(4-methylpiperazin-1-yl)ethoxy]-3,4-dihydropyrido[4,3-d]pyrimidin-2(1H)-one]
< 0.1 µM | < 0.1 µM | < 0.1 µM | COc1cc(OC)c(F)c(N2Cc3cnc(N)c(-c4ccnn4C)c3N(C)C2=O)c1F [Example 13, 7-amino-3-(2,6-difluoro-3,5-dimethoxyphenyl)-1-methyl-8-(1-methyl-1H-pyrazol-5-yl)-3,4-dihydropyrido[4,3-d]pyrimidin-2(1H)-one]
< 0.1 µM | < 0.1 µM | < 0.1 µM | COc1cc(OC)c(F)c(N2Cc3cnc(NC[C@@H]4CCCO4)cc3C3(CC3)C2=O)c1F [Example 35, (S)-2′-(2,6-difluoro-3,5-dimethoxyphenyl)-6′-((tetrahydrofuran-2-yl)methylamino)-1′H-spiro[cyclopropane-1,4′-[2,7]naphthyridin]-3′(2′H)-one]
< 0.1 µM | < 0.1 µM | < 0.1 µM | COc1cc(OC)c(F)c(N2Cc3cnc(NC4CCCCC4)cc3C3(CC3)C2=O)c1F [Example 39, 6′-(cyclohexylamino)-2′-(2,6-difluoro-3,5-dimethoxyphenyl)-1′H-spiro[cyclopropane-1,4′-[2,7]naphthyridin]-3′(2′H)-one]
< 0.1 µM | < 0.1 µM | < 0.1 µM | COc1cc(OC)c(F)c(N2Cc3cnc(N)c(C#N)c3N(c3ccccc3F)C2=O)c1F [Example 53, 7-amino-3-(2,6-difluoro-3,5-dimethoxyphenyl)-1-(2-fluorophenyl)-2-oxo-1,2,3,4-tetrahydropyrido[4,3-d]pyrimidine-8-carbonitrile]
< 0.1 µM | < 0.1 µM | < 0.1 µM | COc1cc(OC)c(F)c(N2Cc3cnc(N)c(Cl)c3N(C)C2=O)c1F [Example 54, 7-amino-8-chloro-3-(2,6-difluoro-3,5-dimethoxyphenyl)-1-methyl-3,4-dihydropyrido[4,3-d]pyrimidin-2(1H)-one]
